Measurements taken from paper PMC4367188 (ACS Chemical Neuroscience, 2015).

Key:
hCHT = target: T1, hCHT (Homo sapiens, UniProt Q9GZV3); assay: [3H]HC-3 binding to membranes from HEK hCHT cells
T1 sequence (Q9GZV3 1-580): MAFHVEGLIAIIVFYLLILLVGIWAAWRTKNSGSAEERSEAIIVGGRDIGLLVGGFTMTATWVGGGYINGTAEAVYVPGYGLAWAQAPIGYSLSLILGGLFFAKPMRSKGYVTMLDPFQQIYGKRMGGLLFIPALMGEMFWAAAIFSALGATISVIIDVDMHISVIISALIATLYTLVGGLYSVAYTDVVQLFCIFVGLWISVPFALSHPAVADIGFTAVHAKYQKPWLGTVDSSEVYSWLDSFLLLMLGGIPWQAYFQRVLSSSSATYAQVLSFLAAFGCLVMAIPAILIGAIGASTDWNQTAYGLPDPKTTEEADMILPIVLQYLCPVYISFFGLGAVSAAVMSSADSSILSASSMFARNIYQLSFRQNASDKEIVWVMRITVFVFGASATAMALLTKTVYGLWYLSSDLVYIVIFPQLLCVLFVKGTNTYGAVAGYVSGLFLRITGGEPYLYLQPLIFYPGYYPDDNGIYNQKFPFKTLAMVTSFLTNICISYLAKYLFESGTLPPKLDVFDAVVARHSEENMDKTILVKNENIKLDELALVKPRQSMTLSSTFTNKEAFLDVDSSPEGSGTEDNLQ

WT hCHT = target: T2, WT hCHT (Homo sapiens, UniProt Q9GZV3); assay: cell-surface biotinylation, CHT surface expression in WT hCHT HEK 293 cells; assay type: cell-based
T2 sequence (Q9GZV3 1-580): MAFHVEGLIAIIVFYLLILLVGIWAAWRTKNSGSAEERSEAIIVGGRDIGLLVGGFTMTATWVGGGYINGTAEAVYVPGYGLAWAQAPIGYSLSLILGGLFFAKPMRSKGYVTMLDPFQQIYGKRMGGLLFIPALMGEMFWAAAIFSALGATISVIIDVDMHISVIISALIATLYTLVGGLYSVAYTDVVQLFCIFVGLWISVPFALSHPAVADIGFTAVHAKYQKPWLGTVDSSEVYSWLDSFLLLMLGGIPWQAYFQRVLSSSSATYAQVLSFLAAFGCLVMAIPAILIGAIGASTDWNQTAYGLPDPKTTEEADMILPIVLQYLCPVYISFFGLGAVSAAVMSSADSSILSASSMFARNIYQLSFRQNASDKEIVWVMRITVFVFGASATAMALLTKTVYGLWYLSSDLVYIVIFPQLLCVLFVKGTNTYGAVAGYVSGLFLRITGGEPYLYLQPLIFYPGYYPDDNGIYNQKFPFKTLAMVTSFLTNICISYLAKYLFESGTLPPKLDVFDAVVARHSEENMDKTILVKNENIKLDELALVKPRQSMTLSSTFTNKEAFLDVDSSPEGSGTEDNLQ

[1] = substrate: C[N+](C)(C)CCO; assay: cells, lysate or membranes; details: other: hCHT LV-AA transfected cells; no inhibitor; 37.0 °C

C[N+]1(C)CCOC(O)(c2ccc(-c3ccc(C4(O)C[N+](C)(C)CCO4)cc3)cc2)C1 (stereo not shown) [HC-3, hemicholinium-3, reference compound]
Kd (hCHT): 8.5 ± 1.1 nM | increase in steady-state hCHT surface expression (WT hCHT; 5 μM, 15 min incubation): 76 ± 16 % of control

C[N+](C)(C)CCO [choline]
effect of choline on CHT surface expression (WT hCHT; choline (10 μM), 15 min): no evidence for the previously reported choline-dependent reductions

B1: hCHT LV-AA (Homo sapiens; L531A/V532A) (protein)
chain: MAFHVEGLIAIIVFYLLILLVGIWAAWRTKNSGSAEERSEAIIVGGRDIGLLVGGFTMTATWVGGGYINGTAEAVYVPGYGLAWAQAPIGYSLSLILGGLFFAKPMRSKGYVTMLDPFQQIYGKRMGGLLFIPALMGEMFWAAAIFSALGATISVIIDVDMHISVIISALIATLYTLVGGLYSVAYTDVVQLFCIFVGLWISVPFALSHPAVADIGFTAVHAKYQKPWLGTVDSSEVYSWLDSFLLLMLGGIPWQAYFQRVLSSSSATYAQVLSFLAAFGCLVMAIPAILIGAIGASTDWNQTAYGLPDPKTTEEADMILPIVLQYLCPVYISFFGLGAVSAAVMSSADSSILSASSMFARNIYQLSFRQNASDKEIVWVMRITVFVFGASATAMALLTKTVYGLWYLSSDLVYIVIFPQLLCVLFVKGTNTYGAVAGYVSGLFLRITGGEPYLYLQPLIFYPGYYPDDNGIYNQKFPFKTLAMVTSFLTNICISYLAKYLFESGTLPPKLDVFDAVVARHSEENMDKTIAAKNENIKLDELALVKPRQSMTLSSTFTNKEAFLDVDSSPEGSGTEDNLQ
Km [1]: 2.5 ± 0.4 µM
